{"source": "patent US20030232851A1", "about": "“Viral treatment” (The Procter & Gamble Company, priority 1999, published 2003)", "key": {"Curvularia lunata": {"system": "Curvularia lunata", "experiment": "Anti-fungal activity (NCCLS M-27A based), Curvularia lunata", "assay_type": "cell-based", "experimental": "It was active against cryptococcus neoformans and curvularai lunata. The cidal activity for the C. neoformans is high enough that it is clear […] against this yeast. This test was conducted using a method based upon NCCLS reference method M-27A published in 1997. Solvent, medium and growth controls were set-up with the tests. Once these were read to validate the test performance, the QC fungi were read to insure they had expected results. These steps validated the test system. DMSO was used as a drug-chemical solvent. […] The 90% cut-off is necessary for azoles, which are static and not cidal. The FMC or cidal level was determined by sub-culturing a sample from each tube showing no growth."}, "HIV-2 cell line, CEMROD": {"system": "HIV-2 cell line, CEMROD", "experiment": "Long term in vitro study, CEMROD, reverse transcriptase", "assay_type": "cell-based", "experimental": "A microtiter-based reveres transcriptase (RT) reaction is utilized (Buckheit et al (1991) AIDS Research and Human Retroviruses 7:295-302). Tritiated thymidine triphosphate (NEN)(TTP) is resuspended in distilled water at 5 Ci/ml. Poly rA and oligo dT are prepared as a stock solution which is kept at −20° C. The RT reaction buffer is prepared fresh on a daily basis and consists of 125 μl 1M EGTA, 125 μl water, 125 μl Triton X-100, 50 μl Tris (pH 7.4), 50 μl 1 MDDT, and 40 μl 1M MgCl2. These three solutions are mixed together in a ratio of 1 part TTP, 2.5 parts poly rA:oligo dT, 2.5 parts reaction buffer and 4 parts distilled water. Ten microliters of this reaction mixture is placed in a round bottom microtiter place and 15 μl of virus containing supernatant is added and mixed. The plate is incubated at 37° C. for 60 minutes. Following reaction, the reaction volume is spotted onto filter mats, washed 6 times for 5 minutes each in a 5% sodium phosphate buffer, 2 times for 1 minute each in distilled water, 2 times for 1 minute each in 70% ethanol, and then dried. The dried filter mat is placed in a plastic sample bag, Betaplate scintillation fluid is added and the bag is heat sealed. Incorporated radioactivity is quantified utilizing a Wallac Microbeta scintillation counter.\nAcute infection of most established human cell lines with HIV-1 results in the eventual establishment of a constitutive virus-producing chronically infected cell line. The cells can be passaged for long periods of time in culture without loss of virus production. These cells may be utilized to evaluate the effects of anti-HIV compounds on syncytium formation or to evaluate the effects of anti-HIV compounds on levels of virus production from these cells. […] Each of the cells contains an integrated HIV genome or provirus. Chronically infected CEM, H9 and U937 cell lines have been prepared and cultured by Southern Research Institute, Frederick Md. and are available from them.\nCEM-SS cells chronically infected with HIV isolate, for example SKI (CEM-SKI) are cultured in RPMI1640 tissue culture medium supplemented with 10% fetal bovine serum and antibiotics. […] CEM-SKI or other infected cells with no added drug are used as the control cells. Cells are allowed to grow to a density of approximately 1×10^6 cells/ml and are then passaged at a 1:10 dilution. […] The drug concentration in the flask is then increased two-fold and the cells maintained as above.\nThe cell populations contain integrated copies of the HIV genome and constitutively produce HIV at relatively high levels or are latently infected and only produce virus after stimulation with phorbol esters, tumor necrosis factor or IL6 (U1 and ACH2). Reductions in virus products were observed when quantifying supernatant reverse transcriptase activity,\nA long term in vitro study of 2-(2-thienyl)-imidazolo [4,5-b]pyridine against an HIV-2 cell line, CEMROD was conducted at three different levels. The results with CEMROD cells were reported at weekly intervals."}}, "data": [{"molecule": "c1csc(-c2nc3cccnc3[nH]2)c1", "note": "[2-(2-thienyl)-imidazolo [4,5-b]pyridine]", "values": [{"measurement": "MIC", "setting": "Curvularia lunata; Curvularia lunata, growth inhibited or reduced at least 90%", "value": 0.03, "unit": "µg/mL"}, {"measurement": "activity against Curvularia lunata (in words)", "setting": "Curvularia lunata; in vitro", "value": "active"}, {"measurement": "reverse transcriptase data", "setting": "HIV-2 cell line, CEMROD; 7 μg/ml, day 4", "value": 8506}, {"measurement": "reverse transcriptase data", "setting": "HIV-2 cell line, CEMROD; 7 μg/ml, day 11", "value": 9471}, {"measurement": "reverse transcriptase data", "setting": "HIV-2 cell line, CEMROD; 7 μg/ml, day 18", "value": 6147}, {"measurement": "reverse transcriptase data", "setting": "HIV-2 cell line, CEMROD; 7 μg/ml, day 25", "value": 6302}, {"measurement": "reverse transcriptase data", "setting": "HIV-2 cell line, CEMROD; 7 μg/ml, day 32", "value": 5482}, {"measurement": "reverse transcriptase data", "setting": "HIV-2 cell line, CEMROD; 7 μg/ml, day 39", "value": 7253}, {"measurement": "reverse transcriptase data", "setting": "HIV-2 cell line, CEMROD; 7 μg/ml, day 46", "value": 4822}, {"measurement": "reverse transcriptase data", "setting": "HIV-2 cell line, CEMROD; 7 μg/ml, day 53", "value": 7257}, {"measurement": "reverse transcriptase data", "setting": "HIV-2 cell line, CEMROD; 7 μg/ml, day 60", "value": 7019}, {"measurement": "reverse transcriptase data", "setting": "HIV-2 cell line, CEMROD; 7 μg/ml, day 67", "value": 7215}, {"measurement": "reverse transcriptase data", "setting": "HIV-2 cell line, CEMROD; 7 μg/ml, day 71", "value": 9052}, {"measurement": "reverse transcriptase data", "setting": "HIV-2 cell line, CEMROD; 7 μg/ml, day 74", "value": 6240}, {"measurement": "reverse transcriptase data", "setting": "HIV-2 cell line, CEMROD; 7 μg/ml, day 88", "value": 10053}, {"measurement": "reverse transcriptase data", "setting": "HIV-2 cell line, CEMROD; 7 μg/ml, day 95", "value": 7482}, {"measurement": "reverse transcriptase data", "setting": "HIV-2 cell line, CEMROD; 7 μg/ml, day 102", "value": 8023}, {"measurement": "reverse transcriptase data", "setting": "HIV-2 cell line, CEMROD; 7 μg/ml, day 109", "value": 13890}, {"measurement": "reverse transcriptase data", "setting": "HIV-2 cell line, CEMROD; 15 μg/ml, day 4", "value": 7447}, {"measurement": "reverse transcriptase data", "setting": "HIV-2 cell line, CEMROD; 15 μg/ml, day 11", "value": 8887}, {"measurement": "reverse transcriptase data", "setting": "HIV-2 cell line, CEMROD; 15 μg/ml, day 18", "value": 5399}, {"measurement": "reverse transcriptase data", "setting": "HIV-2 cell line, CEMROD; 15 μg/ml, day 25", "value": 5040}, {"measurement": "reverse transcriptase data", "setting": "HIV-2 cell line, CEMROD; 15 μg/ml, day 32", "value": 4695}, {"measurement": "reverse transcriptase data", "setting": "HIV-2 cell line, CEMROD; 15 μg/ml, day 39", "value": 6277}, {"measurement": "reverse transcriptase data", "setting": "HIV-2 cell line, CEMROD; 15 μg/ml, day 46", "value": 2165}, {"measurement": "reverse transcriptase data", "setting": "HIV-2 cell line, CEMROD; 15 μg/ml, day 53", "value": 6546}, {"measurement": "reverse transcriptase data", "setting": "HIV-2 cell line, CEMROD; 15 μg/ml, day 60", "value": 5940}, {"measurement": "reverse transcriptase data", "setting": "HIV-2 cell line, CEMROD; 15 μg/ml, day 67", "value": 3215}, {"measurement": "reverse transcriptase data", "setting": "HIV-2 cell line, CEMROD; 15 μg/ml, day 71", "value": 7256}, {"measurement": "reverse transcriptase data", "setting": "HIV-2 cell line, CEMROD; 15 μg/ml, day 74", "value": 4687}, {"measurement": "reverse transcriptase data", "setting": "HIV-2 cell line, CEMROD; 15 μg/ml, day 88", "value": 8277}, {"measurement": "reverse transcriptase data", "setting": "HIV-2 cell line, CEMROD; 15 μg/ml, day 95", "value": 5116}, {"measurement": "reverse transcriptase data", "setting": "HIV-2 cell line, CEMROD; 15 μg/ml, day 102", "value": 6546}, {"measurement": "reverse transcriptase data", "setting": "HIV-2 cell line, CEMROD; 15 μg/ml, day 109", "value": 10349}, {"measurement": "reverse transcriptase data", "setting": "HIV-2 cell line, CEMROD; 30 μg/ml, day 4", "value": 4426}, {"measurement": "reverse transcriptase data", "setting": "HIV-2 cell line, CEMROD; 30 μg/ml, day 11", "value": 7092}, {"measurement": "reverse transcriptase data", "setting": "HIV-2 cell line, CEMROD; 30 μg/ml, day 18", "value": 3322}, {"measurement": "reverse transcriptase data", "setting": "HIV-2 cell line, CEMROD; 30 μg/ml, day 25", "value": 3212}, {"measurement": "reverse transcriptase data", "setting": "HIV-2 cell line, CEMROD; 30 μg/ml, day 32", "value": 3960}, {"measurement": "reverse transcriptase data", "setting": "HIV-2 cell line, CEMROD; 30 μg/ml, day 39", "value": 4543}, {"measurement": "reverse transcriptase data", "setting": "HIV-2 cell line, CEMROD; 30 μg/ml, day 46", "value": 1245}, {"measurement": "reverse transcriptase data", "setting": "HIV-2 cell line, CEMROD; 30 μg/ml, day 53", "value": 2402}, {"measurement": "reverse transcriptase data", "setting": "HIV-2 cell line, CEMROD; 30 μg/ml, day 60", "value": 2410}, {"measurement": "reverse transcriptase data", "setting": "HIV-2 cell line, CEMROD; 30 μg/ml, day 67", "value": 1843}, {"measurement": "reverse transcriptase data", "setting": "HIV-2 cell line, CEMROD; 30 μg/ml, day 71", "value": 2121}, {"measurement": "reverse transcriptase data", "setting": "HIV-2 cell line, CEMROD; 30 μg/ml, day 74", "value": 1285}, {"measurement": "reverse transcriptase data", "setting": "HIV-2 cell line, CEMROD; 30 μg/ml, day 88", "value": 2543}, {"measurement": "reverse transcriptase data", "setting": "HIV-2 cell line, CEMROD; 30 μg/ml, day 95", "value": 2245}, {"measurement": "reverse transcriptase data", "setting": "HIV-2 cell line, CEMROD; 30 μg/ml, day 102", "value": 2402}, {"measurement": "reverse transcriptase data", "setting": "HIV-2 cell line, CEMROD; 30 μg/ml, day 109", "value": 1140}, {"measurement": "reverse transcriptase data on continuation (in words)", "setting": "HIV-2 cell line, CEMROD; run through 242 days", "value": "data remained consistent"}]}]}
